Assay results from US20070071746A1, “C/CLP antagonists and methods of use thereof” (MEDIMMUNE, INC., priority 2005, published 2007).
Entries after “also recorded” stand apart in the source; their conditions may differ. Values belong to the molecule of their own block, whether it stands above or below them.

Tests used:
Jurkat T cells = assay: Galectin-3 induced apoptosis in Jurkat T cells; assay type: cell-based, human
[1] = target: T1, human AMCase / human galectin 4 (Homo sapiens, UniProt P56470); assay: C/CLP-Galectin Interaction ELISA; assay type: binding
T1 construct: 6xHis (C); made in house; host or cells: HEK293 (AMCase)
T1 sequence (P56470 1-323): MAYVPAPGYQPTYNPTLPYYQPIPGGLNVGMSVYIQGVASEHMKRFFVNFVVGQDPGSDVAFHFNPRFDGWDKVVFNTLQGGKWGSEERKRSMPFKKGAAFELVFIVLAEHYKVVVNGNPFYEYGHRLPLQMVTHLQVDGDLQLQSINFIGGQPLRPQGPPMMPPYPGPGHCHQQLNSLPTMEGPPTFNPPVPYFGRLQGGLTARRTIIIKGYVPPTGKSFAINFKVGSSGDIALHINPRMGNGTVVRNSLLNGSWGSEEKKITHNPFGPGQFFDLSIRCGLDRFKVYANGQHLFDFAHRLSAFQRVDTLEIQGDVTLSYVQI
Procedure: (§1) C/CLP-Galectin Interaction ELISA: Galectin is immobilized on a microtiter plate in DPBS over night at 2-8° C. The plates are then washed with DPBS, 0.1% Tween 20 and blocked for 1 hour at room temperature. Serial dilutions of biotin labeled AMCase are added to each well and incubated for ˜1 hour at room temperature followed by HRP labeled streptavidin. Horseradish peroxydase activity is detected with TMB substrate (KPL, MD) and the reaction is quenched with 1% H2SO4. The absorbance is read at 450 nm.

[2] = 4-Mu-Chitotrioside assay, activity of recombinant AMCase proteins; assay type: biochemical; settings: 4-Mu-Chitotrioside assay (soluble substrate)
Procedure: Activity Assays Used: Chitinase activity was assayed using two different but commonly used assays. One assay (4-Mu-Chitotrioside assay) utilized 4-methylumbelliferyl-β-D-N,N′,N″-triacetylchitotrise as a substrate (see, e.g., Hollak et al., 1994, J. Clin. Invest. 93: 1288-92). The other (chitin-azure assay) utilized chitin azure as a substrate (see, e.g., Thompson et al., (2001) Appl Environ Microbiol. 67:4001-4008).

[3] = test system: human AMCase / human galectin 3; assay: C/CLP-Galectin Interaction ELISA; assay type: binding; settings: listed as full length human AMCase
Procedure: as §1

galectin 1 = galectin 1 (Homo sapiens, UniProt P09382); assay: C/CLP-Galectin Interaction ELISA; assay type: binding
Procedure: as §1

galectin 8 = target: T2, galectin 8 (Homo sapiens, UniProt O00214); assay: C/CLP-Galectin Interaction ELISA; assay type: binding
T2 sequence (O00214 1-317): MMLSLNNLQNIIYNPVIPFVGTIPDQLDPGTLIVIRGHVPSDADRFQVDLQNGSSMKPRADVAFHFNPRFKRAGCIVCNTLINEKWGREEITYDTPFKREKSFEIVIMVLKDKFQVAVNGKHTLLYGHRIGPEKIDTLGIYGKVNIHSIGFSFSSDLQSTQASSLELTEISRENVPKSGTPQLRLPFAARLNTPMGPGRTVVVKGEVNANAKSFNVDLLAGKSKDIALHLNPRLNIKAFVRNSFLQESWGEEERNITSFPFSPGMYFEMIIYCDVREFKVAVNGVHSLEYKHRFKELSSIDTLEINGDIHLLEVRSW
Procedure: as §1

galectin 7 = galectin 7 (Homo sapiens, UniProt P47929); assay: C/CLP-Galectin Interaction ELISA; assay type: binding
Procedure: as §1

galectin 2 = target: T3, galectin 2 (Homo sapiens, UniProt P05162); assay: C/CLP-Galectin Interaction ELISA; assay type: binding
T3 sequence (P05162 1-132): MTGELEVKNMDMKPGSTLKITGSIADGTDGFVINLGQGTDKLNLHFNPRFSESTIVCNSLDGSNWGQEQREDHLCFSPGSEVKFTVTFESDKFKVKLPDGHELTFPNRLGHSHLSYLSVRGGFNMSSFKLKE
Procedure: as §1

Jurkat cells = assay: Galectin Induced Calcium Flux; assay type: cell-based, human; settings: for inhibition of galectin-3 induced calcium flux: 200 μg/ml, versus 100 μg/ml; for calcium flux in Jurkat cells: galectin-3 40 μg/ml
Procedure: Galectin Induced Calcium Flux: Jurkat cells were labeled with Fluo-4AM and Fura-Red. galectin-3 (40 μg/ml) was added to the cells and Ca flux was analyzed as FL1/FL3. Analysis was performed for 5 minutes. For interaction analysis gal-3 (40μg/ml) is pre-incubated with huAMCase (100-200 μg/ml) or huChTrase (100-200 μg/ml) for 15 mins at RT prior to addition.

[4] = test system: memory T cells isolated from human blood; assay: Galectin-3 induced apoptosis in memory T cells; assay type: cell-based
peritoneal macrophages = assay: Cytokine induction assay with recombinant mYKL-40; assay type: cell-based, mouse; settings: for secretion of IL-6 / secretion of KC: increasing amounts of recombinant mYKL-40
Procedure: Isolation of peritoneal macrophaaes: 4-6 week old Balb/c mice were injected i.p. with 1 ml of fluid thioglyclollate medium (Becton, Dickinson and Company, Sparks, Md.). 4 days later peritoneal macrophages were harvested by lavage (ice-cold PBS w/o Ca, Mg, 10 ml/mouse). Cells were washed with PBS twice and resuspended in 10% FBS/RPMI 1640 medium (Glutamax, 25 mM Hepes, 1×antibiotic-antimycotic (Invitrogen, Grand Island, N.Y.) at 2.5×10^6 cells/ml. Cells were plated in 96 well TC plates (100 μl/well). After overnight incubation at 37° C. nonadherent cells were removed by washing with serum free RPMI 1640. 100 μl/well of 10% FBS/RPMI 1640 were added and cells were cultured for 72 hr.
Cytokine Induction Assays: isolated peritoneal macrophages (described above) were washed with PBS, proteins and antibodies, concentrated supernatants, were added in 2% FBS/RPMI 1640, 100 μl/well. After 18 hr incubation supernatants were collected and cytokine concentrations were measured using mouse cytokine multiplex kit (Upstate, Lake Placid, N.Y.) on Luminex 100.

[5] = target: T4, mouse AMCase / mouse galectin-4 (Mus musculus, UniProt Q91XA9); assay: C/CLP-Galectin Interaction ELISA; assay type: binding; settings: data not shown
T4 construct: 6xHis (C); made in house; host or cells: HEK293 (FreeStyle 293), secreted and purified on nickel NTA
Procedure: as §1

[6] = target: T5, mouse AMCase / mouse galectin-3 (Mus musculus, UniProt Q91XA9); assay: C/CLP-Galectin Interaction ELISA; assay type: binding; settings: data not shown
T5 construct: 6xHis (C); made in house; host or cells: HEK293 (FreeStyle 293), secreted and purified on nickel NTA
Procedure: as §1

[7] = listed as recombinant mouseYKL-40

T5 sequence (Q91XA9 22-473): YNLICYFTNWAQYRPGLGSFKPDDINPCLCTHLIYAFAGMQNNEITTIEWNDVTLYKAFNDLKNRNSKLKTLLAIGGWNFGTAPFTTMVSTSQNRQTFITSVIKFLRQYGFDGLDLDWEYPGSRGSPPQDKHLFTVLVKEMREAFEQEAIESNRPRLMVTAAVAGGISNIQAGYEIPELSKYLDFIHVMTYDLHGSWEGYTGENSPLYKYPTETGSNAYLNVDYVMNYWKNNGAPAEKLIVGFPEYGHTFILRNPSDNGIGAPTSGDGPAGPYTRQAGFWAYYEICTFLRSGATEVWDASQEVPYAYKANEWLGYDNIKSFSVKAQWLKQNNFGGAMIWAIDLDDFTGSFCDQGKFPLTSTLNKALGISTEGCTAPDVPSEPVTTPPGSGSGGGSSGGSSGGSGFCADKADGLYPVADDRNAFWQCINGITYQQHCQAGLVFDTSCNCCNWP
T4 sequence (Q91XA9 22-473): as above
galectin 7, sequence (P47929 whole entry): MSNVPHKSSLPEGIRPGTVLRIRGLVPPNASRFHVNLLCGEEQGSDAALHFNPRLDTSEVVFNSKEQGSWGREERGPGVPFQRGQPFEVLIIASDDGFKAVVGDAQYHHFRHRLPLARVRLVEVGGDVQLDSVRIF
galectin 1, sequence (P09382 2-135 limits assumed): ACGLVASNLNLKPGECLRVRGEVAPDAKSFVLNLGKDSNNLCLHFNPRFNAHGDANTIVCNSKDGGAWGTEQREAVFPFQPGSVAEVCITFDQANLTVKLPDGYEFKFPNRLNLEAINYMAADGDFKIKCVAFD

Molecule: AMCase: recombinant human acidic mammalian chitinase
binding of AMCase to galectin 4 ([1]; listed as full length human AMCase): confirmed; also recorded: binds
binding of AMCase to galectin 3 [3]: confirmed; also recorded: binds
binding of AMCase to galectin 1 (galectin 1): not
binding of AMCase to galectin 8 (galectin 8): not
binding of AMCase to galectin 7 (galectin 7): not
binding of AMCase to galectin 2 (galectin 2): not
inhibition of galectin-3 mediated calcium flux (Jurkat cells): inhibited
inhibition of galectin-3 induced calcium flux (Jurkat cells): further inhibition
inhibition of galectin-3 induced apoptosis of memory T cells ([4]; 10 μg galectin-3, 50 μg or more of AMCase): inhibited; also recorded: significant inhibition

Molecule: Cht: recombinant human chitotriosidase
inhibition of galectin-3 mediated calcium flux (Jurkat cells): inhibited
inhibition of galectin-3 induced calcium flux (Jurkat cells): not

Molecule: D136A: AMCase full length protein containing the D136A mutation [Antibody D136A]
activity of recombinant AMCase proteins [2]: no activity; also recorded: completely abolished activity

Molecule: mYKL-40: recombinant mouse YKL-40/BRP-39
induction of IL-10 (peritoneal macrophages): induced
induction of RANTES (peritoneal macrophages): induced
induction of TNF-α (peritoneal macrophages): induced
secretion of IL-6 (peritoneal macrophages): increase
secretion of KC (peritoneal macrophages): increase
secretion of IL-6 (peritoneal macrophages; [7]): dose sensitive increase
secretion of KC (peritoneal macrophages; [7]): dose sensitive increase

Molecule: mouse AMCase: recombinant mouse acidic mammalian chitinase
binding of mouse AMCase to mouse galectin-4 [5]: bind
binding of mouse AMCase to mouse galectin-3 [6]: bind

Molecule: rhuGal-3: recombinant human Galectin 3
apoptosis of Jurkat T cells (Jurkat T cells; 1 μg rhuGal-3): Little to no apoptosis
apoptosis of Jurkat T cells (Jurkat T cells; 5, 10 and 30 μg rhuGal-3): increased apoptosis
apoptosis of Jurkat T cells (Jurkat T cells; 5, 10 and 30 μg rhuGal-3, listed as Galectin-3): induce apoptosis
calcium flux in Jurkat cells (Jurkat cells; listed as Galectin): results in calcium flux
calcium flux in Jurkat cells (Jurkat cells; listed as Galectin-3): mediate calcium flux
apoptosis of memory T cells ([4]; galectin-3 alone): induced apoptosis

Further lines, with some results ahead:

inhibition of binding of Human AMCase to Galectin 4 [1]: inhibited
Molecule: OC[C@H]1O[C@@H](O[C@H]2[C@H](O)[C@@H](O)C(O)O[C@@H]2CO)[C@H](O)[C@@H](O)[C@H]1O (some centres unmarked) [lactose, reference compound]
effect on galectin-3 induced apoptosis of Jurkat T cells (Jurkat T cells; addition of lactose): abolished; also recorded: reduced the levels of apoptosis seen to nearly background levels

activity of recombinant AMCase proteins [2]: high activity
activity of recombinant AMCase proteins ([2]; listed as truncated form): active
Molecule: AMCase-TR: recombinant AMCase protein lacking the CBD

activity of recombinant AMCase proteins [2]: high activity; also recorded: active
Molecule: full length AMCase: recombinant full length AMCase protein
